Laboratory results from ChEMBL document CHEMBL1201862, “PubChem BioAssay data set” (2004).
Active and inactive are the calls of the source.

What was measured:
[1] = target: Mucolipin-3 (Homo sapiens, UniProt Q8TDD5); experiment: Fluorescence counterscreen assay for […] agonists: dose response cell-based high-throughput screening assay to identify agonists of the transient receptor potential channel ML3 (TRPML3). [Related pubchem assays: 1424, 1448 ]; assay type: functional
[2] = target: Ion channel NompC (Danio rerio, UniProt Q7T1G6); experiment: Dose response cell-based high-throughput screening assay for agonists of the transient receptor potential channel N1 (TRPN1). [Related pubchem assays (depositor defined):AID1424, AID1448]; assay type: functional
Ion channel NompC, sequence (Q7T1G6 whole entry): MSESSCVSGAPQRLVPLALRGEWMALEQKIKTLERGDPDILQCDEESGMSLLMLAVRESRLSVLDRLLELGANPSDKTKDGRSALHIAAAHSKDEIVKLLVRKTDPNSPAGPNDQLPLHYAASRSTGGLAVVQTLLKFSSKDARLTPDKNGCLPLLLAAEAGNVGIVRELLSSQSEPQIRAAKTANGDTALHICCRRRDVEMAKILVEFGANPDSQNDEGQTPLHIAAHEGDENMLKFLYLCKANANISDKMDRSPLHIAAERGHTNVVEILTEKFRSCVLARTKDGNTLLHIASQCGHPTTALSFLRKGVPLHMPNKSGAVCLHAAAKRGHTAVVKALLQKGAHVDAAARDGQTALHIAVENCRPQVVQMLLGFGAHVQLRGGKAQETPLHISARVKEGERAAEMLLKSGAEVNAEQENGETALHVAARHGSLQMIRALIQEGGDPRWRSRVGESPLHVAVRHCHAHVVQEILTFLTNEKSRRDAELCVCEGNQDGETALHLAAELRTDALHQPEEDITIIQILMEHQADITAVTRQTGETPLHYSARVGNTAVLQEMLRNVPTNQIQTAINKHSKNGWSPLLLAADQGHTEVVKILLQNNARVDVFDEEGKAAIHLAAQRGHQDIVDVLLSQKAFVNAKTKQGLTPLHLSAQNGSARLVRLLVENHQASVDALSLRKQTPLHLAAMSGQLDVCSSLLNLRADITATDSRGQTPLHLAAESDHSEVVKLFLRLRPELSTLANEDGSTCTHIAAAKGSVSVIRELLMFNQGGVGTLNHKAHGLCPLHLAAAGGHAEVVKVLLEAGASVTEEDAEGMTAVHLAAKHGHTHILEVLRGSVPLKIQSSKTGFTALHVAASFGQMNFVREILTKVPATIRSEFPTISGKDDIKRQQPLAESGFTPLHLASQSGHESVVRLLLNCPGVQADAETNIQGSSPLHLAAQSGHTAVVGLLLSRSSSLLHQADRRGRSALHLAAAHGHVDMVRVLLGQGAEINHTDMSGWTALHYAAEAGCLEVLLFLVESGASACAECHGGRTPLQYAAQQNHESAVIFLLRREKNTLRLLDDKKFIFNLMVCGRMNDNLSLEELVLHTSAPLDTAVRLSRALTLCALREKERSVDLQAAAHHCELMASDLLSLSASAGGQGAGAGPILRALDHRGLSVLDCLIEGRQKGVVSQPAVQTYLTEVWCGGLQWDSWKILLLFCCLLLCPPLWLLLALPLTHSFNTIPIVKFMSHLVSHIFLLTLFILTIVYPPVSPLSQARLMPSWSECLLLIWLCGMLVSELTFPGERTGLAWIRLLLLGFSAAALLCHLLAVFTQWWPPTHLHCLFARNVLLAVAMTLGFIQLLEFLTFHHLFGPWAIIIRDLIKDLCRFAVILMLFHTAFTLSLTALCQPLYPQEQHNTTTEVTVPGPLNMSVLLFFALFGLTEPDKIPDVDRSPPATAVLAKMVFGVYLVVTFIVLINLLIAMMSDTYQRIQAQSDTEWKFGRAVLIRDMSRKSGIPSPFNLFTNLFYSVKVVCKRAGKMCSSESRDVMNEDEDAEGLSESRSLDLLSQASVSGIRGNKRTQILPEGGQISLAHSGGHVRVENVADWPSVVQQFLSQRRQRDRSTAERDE

[3] = NIH3T3 cell viability loss – ATP luminescence, mouse fibroblasts, counter-screen, dose response (AID 2010); assay type: functional, cell-based;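 also: cells exposed to compound for about 90 hours before reading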
[4] = target: T1, Alkaline phosphatase, tissue-nonspecific isozyme (Homo sapiens, UniProt P05186); experiment: TNAP enzyme inhibition by screening hits, dose response, selectivity assay for mouse IAP inhibitor project, biochemical, human TNAP, uHTS hits (AID 488906); assay type: functional
T1 sequence (P05186 whole entry): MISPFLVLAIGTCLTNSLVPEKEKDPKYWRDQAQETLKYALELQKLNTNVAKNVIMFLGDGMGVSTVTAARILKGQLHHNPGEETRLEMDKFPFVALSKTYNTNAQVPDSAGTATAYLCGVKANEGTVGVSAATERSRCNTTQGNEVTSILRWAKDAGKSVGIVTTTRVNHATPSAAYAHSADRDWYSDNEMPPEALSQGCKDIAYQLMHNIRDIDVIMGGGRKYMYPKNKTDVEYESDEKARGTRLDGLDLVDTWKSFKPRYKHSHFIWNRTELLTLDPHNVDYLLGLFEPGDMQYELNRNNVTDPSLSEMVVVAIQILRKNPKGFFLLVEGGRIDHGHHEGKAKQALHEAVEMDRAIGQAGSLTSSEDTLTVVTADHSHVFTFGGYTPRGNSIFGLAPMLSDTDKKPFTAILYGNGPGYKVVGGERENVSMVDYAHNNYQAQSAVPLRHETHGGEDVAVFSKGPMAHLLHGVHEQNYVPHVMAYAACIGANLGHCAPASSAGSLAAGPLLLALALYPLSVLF

[5] = Trypanosoma cruzi growth suppression in host cells – NIH3T3 host cells, beta-gal luminescence, confirmation (AID 2044); assay type: functional, cell-based;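 also: intracellular parasites grown in NIH/3T3 mouse fibroblasts as host cells; luminescent beta-galactosidase reporter signal from transgenic T. cruzi replicating inside host cells; inhibitors lower the luminescence signal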
[6] = target: Intestinal-type alkaline phosphatase (Homo sapiens, UniProt P09923); experiment: activation of human intestinal alkaline phosphatase – biochemical, dose response (AID 488873); assay type: functional
Intestinal-type alkaline phosphatase (Homo sapiens, UniProt P09923), sequence (P09923 whole entry): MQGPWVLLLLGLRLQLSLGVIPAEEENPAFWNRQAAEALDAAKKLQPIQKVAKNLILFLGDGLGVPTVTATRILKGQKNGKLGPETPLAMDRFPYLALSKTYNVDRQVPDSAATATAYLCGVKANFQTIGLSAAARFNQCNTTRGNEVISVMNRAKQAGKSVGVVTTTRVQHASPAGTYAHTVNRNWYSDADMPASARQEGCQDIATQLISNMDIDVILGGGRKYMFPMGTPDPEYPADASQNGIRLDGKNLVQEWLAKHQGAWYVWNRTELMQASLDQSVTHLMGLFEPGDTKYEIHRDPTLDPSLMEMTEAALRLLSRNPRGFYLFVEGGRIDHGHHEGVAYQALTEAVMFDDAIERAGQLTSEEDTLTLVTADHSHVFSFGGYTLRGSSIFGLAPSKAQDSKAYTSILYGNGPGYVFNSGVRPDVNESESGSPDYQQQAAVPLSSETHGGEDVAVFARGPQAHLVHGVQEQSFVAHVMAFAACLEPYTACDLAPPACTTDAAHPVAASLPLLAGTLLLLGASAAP

[7] = target: T1, Alkaline phosphatase, tissue-nonspecific isozyme
[8] = target: Intestinal-type alkaline phosphatase (Mus musculus, UniProt P24822); experiment: PubChem AID 488785; assay type: functional
Intestinal-type alkaline phosphatase (Mus musculus, UniProt P24822), sequence (P24822 whole entry): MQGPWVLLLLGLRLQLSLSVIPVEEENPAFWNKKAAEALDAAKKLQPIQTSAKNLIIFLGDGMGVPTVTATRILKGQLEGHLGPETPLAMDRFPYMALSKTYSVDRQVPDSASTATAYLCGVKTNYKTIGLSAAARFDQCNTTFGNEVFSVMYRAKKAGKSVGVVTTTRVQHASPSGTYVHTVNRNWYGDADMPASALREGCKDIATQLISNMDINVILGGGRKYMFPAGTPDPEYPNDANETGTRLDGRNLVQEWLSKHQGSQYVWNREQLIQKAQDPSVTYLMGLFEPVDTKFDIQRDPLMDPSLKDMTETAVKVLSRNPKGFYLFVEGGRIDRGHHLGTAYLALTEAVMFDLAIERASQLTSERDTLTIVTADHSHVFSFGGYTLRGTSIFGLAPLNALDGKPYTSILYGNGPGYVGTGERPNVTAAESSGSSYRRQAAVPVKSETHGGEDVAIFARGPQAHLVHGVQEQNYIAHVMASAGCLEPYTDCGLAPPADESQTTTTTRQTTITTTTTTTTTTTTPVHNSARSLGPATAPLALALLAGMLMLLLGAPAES

[9] = target: T2, Hexokinase-1 (Homo sapiens, UniProt P19367); experiment: HK1 enzyme activation by HKDC1 hits – biochemical, selectivity assay for HKDC1 activator project, dose response (AID 504762); assay type: functional
T2 sequence (P19367 whole entry): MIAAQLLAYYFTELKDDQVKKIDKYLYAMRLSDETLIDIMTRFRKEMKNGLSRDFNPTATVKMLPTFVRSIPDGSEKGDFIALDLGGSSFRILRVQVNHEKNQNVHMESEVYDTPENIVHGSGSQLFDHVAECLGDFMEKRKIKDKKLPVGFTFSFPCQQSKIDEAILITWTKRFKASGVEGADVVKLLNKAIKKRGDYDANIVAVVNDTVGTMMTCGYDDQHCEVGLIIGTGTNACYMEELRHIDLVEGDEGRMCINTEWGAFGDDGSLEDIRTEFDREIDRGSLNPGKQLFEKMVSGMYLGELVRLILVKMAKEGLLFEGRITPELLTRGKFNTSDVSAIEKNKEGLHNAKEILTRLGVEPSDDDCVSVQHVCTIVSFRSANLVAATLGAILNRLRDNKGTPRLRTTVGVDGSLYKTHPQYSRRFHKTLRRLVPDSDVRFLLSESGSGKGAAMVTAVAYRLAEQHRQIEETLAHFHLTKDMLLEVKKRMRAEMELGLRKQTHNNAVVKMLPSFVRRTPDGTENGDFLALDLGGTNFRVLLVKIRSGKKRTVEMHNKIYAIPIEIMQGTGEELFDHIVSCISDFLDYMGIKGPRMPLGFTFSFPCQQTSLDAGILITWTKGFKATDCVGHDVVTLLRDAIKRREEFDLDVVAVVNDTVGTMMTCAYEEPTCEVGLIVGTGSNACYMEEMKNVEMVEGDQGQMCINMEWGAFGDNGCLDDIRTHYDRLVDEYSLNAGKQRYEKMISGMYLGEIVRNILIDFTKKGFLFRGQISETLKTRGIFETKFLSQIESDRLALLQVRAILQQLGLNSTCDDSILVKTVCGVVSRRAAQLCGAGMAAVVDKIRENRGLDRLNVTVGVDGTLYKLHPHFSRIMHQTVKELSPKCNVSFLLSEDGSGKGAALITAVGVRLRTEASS

[10] = target: T3, Short transient receptor potential channel 4 (Mus musculus, UniProt Q9QUQ5); experiment: calcium entry via TRPC4 opening agents – cell-based, HEK293 TRPC4/mu-opioid, Fluo-4 calcium, dose response (AID 434937); assay type: functional
T3 sequence (Q9QUQ5 whole entry): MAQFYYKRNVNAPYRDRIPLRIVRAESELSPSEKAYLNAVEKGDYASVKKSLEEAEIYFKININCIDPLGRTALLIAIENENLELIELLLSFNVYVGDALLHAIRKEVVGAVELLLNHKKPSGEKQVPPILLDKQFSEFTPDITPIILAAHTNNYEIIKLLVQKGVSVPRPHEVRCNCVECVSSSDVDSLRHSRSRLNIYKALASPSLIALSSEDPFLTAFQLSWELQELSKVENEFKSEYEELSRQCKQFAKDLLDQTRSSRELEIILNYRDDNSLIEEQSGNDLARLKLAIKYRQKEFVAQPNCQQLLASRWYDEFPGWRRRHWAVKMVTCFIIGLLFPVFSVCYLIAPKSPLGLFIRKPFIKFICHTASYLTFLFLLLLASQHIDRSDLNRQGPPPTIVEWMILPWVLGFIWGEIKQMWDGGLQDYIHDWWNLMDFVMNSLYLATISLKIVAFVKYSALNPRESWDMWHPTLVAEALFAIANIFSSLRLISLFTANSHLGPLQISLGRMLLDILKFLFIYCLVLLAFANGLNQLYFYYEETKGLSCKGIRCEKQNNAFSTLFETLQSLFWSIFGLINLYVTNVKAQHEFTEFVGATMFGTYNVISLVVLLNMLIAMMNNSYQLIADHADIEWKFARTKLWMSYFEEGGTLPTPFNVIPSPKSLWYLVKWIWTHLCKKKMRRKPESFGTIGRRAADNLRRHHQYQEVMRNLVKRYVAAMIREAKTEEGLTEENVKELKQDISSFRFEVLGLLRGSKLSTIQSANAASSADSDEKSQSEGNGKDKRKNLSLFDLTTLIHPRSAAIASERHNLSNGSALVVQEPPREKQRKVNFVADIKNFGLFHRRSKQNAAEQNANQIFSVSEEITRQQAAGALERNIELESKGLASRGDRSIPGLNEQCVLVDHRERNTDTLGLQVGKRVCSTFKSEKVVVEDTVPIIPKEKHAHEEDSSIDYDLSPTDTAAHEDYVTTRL

[11] = target: T4, Hexokinase HKDC1 (Homo sapiens, UniProt Q2TB90); experiment: activation of HKDC1 glucose phosphorylation – biochemical, W721R variant, dose response (AID 504730); assay type: functional
T4 sequence (Q2TB90 whole entry): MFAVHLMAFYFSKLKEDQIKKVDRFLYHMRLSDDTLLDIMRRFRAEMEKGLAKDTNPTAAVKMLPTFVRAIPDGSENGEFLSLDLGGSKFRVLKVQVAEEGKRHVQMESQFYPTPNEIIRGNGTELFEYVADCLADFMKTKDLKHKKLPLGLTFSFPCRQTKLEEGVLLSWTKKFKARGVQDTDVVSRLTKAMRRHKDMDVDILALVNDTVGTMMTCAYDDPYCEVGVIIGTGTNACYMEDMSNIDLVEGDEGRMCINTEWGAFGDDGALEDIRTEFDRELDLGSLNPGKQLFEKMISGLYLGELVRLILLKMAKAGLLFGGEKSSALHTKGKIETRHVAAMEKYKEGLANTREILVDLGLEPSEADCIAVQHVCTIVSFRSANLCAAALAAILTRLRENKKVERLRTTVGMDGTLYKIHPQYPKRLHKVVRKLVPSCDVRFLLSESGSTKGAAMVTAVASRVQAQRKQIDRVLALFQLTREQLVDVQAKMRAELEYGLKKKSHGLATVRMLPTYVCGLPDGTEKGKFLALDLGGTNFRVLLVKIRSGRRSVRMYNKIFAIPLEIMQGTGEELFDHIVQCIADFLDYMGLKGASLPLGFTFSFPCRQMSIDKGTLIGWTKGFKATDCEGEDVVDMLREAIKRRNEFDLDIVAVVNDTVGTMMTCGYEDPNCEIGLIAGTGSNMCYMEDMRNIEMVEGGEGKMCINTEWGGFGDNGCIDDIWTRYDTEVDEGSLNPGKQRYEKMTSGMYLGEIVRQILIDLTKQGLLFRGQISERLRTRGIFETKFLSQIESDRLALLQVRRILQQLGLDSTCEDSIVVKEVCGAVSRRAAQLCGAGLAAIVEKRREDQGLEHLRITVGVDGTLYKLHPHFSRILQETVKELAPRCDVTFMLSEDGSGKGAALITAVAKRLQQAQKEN

[12] = test system: Streptococcus sp. 'group A'; experiment: Streptococcus pyogenes SK(-)GAS viability under kanamycin – luminescence, BacTiterGlo, confirmation, counter-screen for streptokinase expression inhibitor project, dose response (AID 1900); assay type: functional, organism-based
[13] = test system: Streptococcus; experiment: GAS UMAA2166 growth inhibition – luminescence, BacTiterGlo, counter-screen for streptokinase expression inhibitor project, dose response (AID 1915); assay type: functional, organism-based;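 also: potency for reduction of bacterial viability or growth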
[14] = target: G-protein coupled receptor 55 (Homo sapiens, UniProt Q9Y2T6); experiment: inhibition of LPI-stimulated GPR55 beta-arrestin translocation – imaging, U2OS, beta-arrestin-GFP, LPI agonist, primary screen (AID 2013); assay type: functional;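 also: antagonist potency measured as reduced agonist-driven arrestin aggregation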
G-protein coupled receptor 55, sequence (Q9Y2T6 whole entry): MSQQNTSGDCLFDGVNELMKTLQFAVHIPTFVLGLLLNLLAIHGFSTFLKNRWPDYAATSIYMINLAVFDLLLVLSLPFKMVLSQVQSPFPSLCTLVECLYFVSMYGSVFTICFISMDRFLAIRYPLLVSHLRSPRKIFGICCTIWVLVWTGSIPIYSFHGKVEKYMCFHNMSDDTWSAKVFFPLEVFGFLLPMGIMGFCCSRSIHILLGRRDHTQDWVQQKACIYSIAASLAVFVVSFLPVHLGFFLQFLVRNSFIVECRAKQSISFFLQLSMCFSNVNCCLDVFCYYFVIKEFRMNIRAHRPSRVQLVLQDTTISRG

[15] = target: T5, E3 ubiquitin-protein ligase XIAP (Homo sapiens, UniProt P98170); experiment: small molecules displacing peptide from XIAP – biochemical, IAP family, fluorescence polarization (AID 1018); assay type: functional
T5 sequence (P98170 whole entry): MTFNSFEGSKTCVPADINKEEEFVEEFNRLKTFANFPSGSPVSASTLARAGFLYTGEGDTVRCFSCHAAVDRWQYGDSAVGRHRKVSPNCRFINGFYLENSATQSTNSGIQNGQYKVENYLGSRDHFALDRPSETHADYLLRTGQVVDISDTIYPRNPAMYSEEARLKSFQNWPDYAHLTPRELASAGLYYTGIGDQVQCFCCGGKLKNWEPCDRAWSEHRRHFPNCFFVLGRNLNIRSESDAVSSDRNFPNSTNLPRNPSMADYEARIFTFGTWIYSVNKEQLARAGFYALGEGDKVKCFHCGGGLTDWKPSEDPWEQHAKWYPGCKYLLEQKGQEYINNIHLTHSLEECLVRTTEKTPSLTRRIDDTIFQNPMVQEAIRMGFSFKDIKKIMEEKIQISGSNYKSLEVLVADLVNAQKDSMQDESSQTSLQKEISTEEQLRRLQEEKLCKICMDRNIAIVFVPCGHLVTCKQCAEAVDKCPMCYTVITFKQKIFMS

[16] = target: Protein-tyrosine kinase 2-beta (Homo sapiens, UniProt Q14289);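 also: potency of inhibitors of PYK2 kinase phosphorylation of poly-GT substrate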
[17] = target: T5, E3 ubiquitin-protein ligase XIAP; experiment: Counter Screen using XIAP-Bir3 for Chemical Antagonists of Bir1/2 domains of IAP-family anti-apoptotic proteins. [Related pubchem assays (depositor defined):AID1018, AID1449, AID1514, AID1638, AID1749, AID1750, AID488957, AID488963]
[18] = target: T6, Nuclear receptor subfamily 0 group B member 1 (Homo sapiens, UniProt P51843); assay type: functional, cell-based;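 also: HEK293T cells transfected with SF-1 and DAX-1 plus StAR promoter luciferase reporter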
T6 sequence (P51843 whole entry): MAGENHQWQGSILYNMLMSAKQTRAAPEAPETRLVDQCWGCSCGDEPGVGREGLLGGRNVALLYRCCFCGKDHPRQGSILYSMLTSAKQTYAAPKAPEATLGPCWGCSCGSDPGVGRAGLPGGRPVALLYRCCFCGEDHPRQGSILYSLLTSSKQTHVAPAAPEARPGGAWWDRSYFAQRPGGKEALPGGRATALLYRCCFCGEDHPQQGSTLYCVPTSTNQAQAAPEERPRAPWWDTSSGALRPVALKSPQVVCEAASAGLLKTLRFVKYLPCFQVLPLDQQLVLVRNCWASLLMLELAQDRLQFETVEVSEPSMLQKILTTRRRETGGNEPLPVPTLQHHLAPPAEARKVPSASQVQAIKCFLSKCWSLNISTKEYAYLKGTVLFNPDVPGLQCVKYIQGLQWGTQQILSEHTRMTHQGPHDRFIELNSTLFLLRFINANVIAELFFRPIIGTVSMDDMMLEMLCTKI

[19] = target: DNA dC->dU-editing enzyme APOBEC-3G (Homo sapiens, UniProt Q9HC16); assay type: functional;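 also: Dose-response counterscreen measuring inhibition of APOBEC3G DNA deaminase activity, run while confirming APOBEC3A inhibitors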
DNA dC->dU-editing enzyme APOBEC-3G, sequence (Q9HC16 whole entry): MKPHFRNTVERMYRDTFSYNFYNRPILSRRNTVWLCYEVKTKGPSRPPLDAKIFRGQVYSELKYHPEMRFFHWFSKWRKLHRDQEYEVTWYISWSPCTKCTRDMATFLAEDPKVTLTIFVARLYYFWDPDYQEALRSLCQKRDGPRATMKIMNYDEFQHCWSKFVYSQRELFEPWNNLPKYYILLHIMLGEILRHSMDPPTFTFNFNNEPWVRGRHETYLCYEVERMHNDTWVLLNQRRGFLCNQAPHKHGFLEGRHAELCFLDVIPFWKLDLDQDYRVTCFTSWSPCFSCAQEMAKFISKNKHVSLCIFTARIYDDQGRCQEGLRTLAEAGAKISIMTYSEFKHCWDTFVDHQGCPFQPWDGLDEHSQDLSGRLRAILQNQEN

[20] = cells; assay type: functional, cell-based
[21] = target: DNA dC->dU-editing enzyme APOBEC-3A (Homo sapiens, UniProt P31941); experiment: Dose Response confirmation of small molecule APOBEC3A DNA Deaminase Inhibitors via a fluorescence-based single-stranded DNA deaminase assay. [Related pubchem assays (depositor defined):AID493011, AID493024]; assay type: functional
DNA dC->dU-editing enzyme APOBEC-3A, sequence (P31941 whole entry): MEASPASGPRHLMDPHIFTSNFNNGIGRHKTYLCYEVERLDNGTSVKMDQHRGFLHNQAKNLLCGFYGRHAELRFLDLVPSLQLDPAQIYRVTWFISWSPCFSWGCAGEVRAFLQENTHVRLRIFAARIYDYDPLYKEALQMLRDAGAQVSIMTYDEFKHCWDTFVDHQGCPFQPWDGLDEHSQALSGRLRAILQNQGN

[22] = blockers of bursicon-stimulated LGR2 cAMP reporter – cell-based, HEK293, CRE-luciferase reporter, cherry pick, set 2, dose response (AID 743343); assay type: functional;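 also: transfected cells were stimulated with diluted bursicon conditioned medium after compound addition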
[23] = blockade of melanocortin 4 receptor signaling – cell-based, plate reader, cherry pick, counter-screen for LGR2 antagonist project, dose response (AID 743444); assay type: functional;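 also: transfected HEK 293 cells stimulated with alpha-MSH peptide; potency of inhibitors of the alpha-MSH evoked signal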
[24] = toxicity toward HepG2 liver cells – cell-based, plate reader, cherry-pick, antagonist series, cytotoxicity control, dose response (AID 743416); assay type: functional

Mucolipin-3, sequence (Q8TDD5 whole entry): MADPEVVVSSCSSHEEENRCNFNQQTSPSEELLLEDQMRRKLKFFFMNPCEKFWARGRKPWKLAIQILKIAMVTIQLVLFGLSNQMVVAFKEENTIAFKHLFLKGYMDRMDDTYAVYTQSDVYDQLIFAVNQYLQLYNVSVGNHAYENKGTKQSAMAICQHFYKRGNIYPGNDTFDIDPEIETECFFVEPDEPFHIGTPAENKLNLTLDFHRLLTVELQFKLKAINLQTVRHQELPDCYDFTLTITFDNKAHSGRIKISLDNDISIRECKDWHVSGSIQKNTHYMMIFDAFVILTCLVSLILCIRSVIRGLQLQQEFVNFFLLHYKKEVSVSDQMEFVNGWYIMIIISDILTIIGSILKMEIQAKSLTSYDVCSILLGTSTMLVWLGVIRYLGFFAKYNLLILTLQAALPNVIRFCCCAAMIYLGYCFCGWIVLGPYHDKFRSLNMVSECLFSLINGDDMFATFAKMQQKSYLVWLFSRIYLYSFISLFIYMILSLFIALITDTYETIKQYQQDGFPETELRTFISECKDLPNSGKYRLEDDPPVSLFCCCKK

## CCOc1ccc(N(CC(=O)O)S(=O)(=O)c2ccc(F)cc2)cc1
[1]
  EC50: > 29.9 µM (not active)
[2]
  EC50: > 29.9 µM (inactive)

## CCOC(=O)c1ccc(N2CCN(c3ccccc3F)CC2)c(NC(=O)Nc2cccc(OC)c2)c1
[3]
  EC50: > 60 µM (inconclusive)
[4]
  IC50: > 100 µM (inactive)
[5]
  EC50: 1.39 µM (active)
[6]
  EC50: > 100 µM (inactive)
[7]
  EC50: > 100 µM (not active)
[8]
  IC50: 6.54 µM (active)

## Cc1onc(-c2ccccc2)c1C(=O)NNC(=S)NC(=O)c1ccc(Br)cc1
[9]
  EC50: > 80 µM (inactive)
[10]
  EC50: 1.88 µM (active)
[11]
  EC50: 6.58 µM (active)
[12]
  EC50: 0.472 µM (active)
[1]
  EC50: 1.03 µM (active)
[13]
  EC50: 1.52 µM (active)
[2]
  EC50: 0.604 µM (active)

## CC(=O)Oc1ccc2ccccc2c1C(NC(=O)Cc1ccccc1)c1ccccc1 (stereo not drawn)
[14]
  IC50: 1.27 µM (active)

## COc1ccc(OC)c(NS(=O)(=O)Cc2ccccc2)c1
[15]
  IC50: > 100 µM (not active)
[16]
  IC50: 12 µM (not active)
[17]
  IC50: > 100 µM (inactive)

## CC(C)N(CC#CCC(O)(c1ccccc1)c1ccccc1)CCO
[15]
  IC50: > 100 µM (not active)
[17]
  IC50: > 100 µM (inactive)

## COc1ccc2sc(NC(=O)c3ccco3)nc2c1
[18]
  IC50: > 67.5 µM (inactive)
[19]
  IC50: 10.3 µM (active)
[20]
  IC50: > 67.5 µM (inactive)
[21]
  IC50: 17.3 µM (active)
[22]
  AC50: 7.49 µM (active)
[23]
  AC50: 8.55 µM (active)
[24]
  AC50: > 52 µM (inactive)
